The text below walks through data of ChEMBL document CHEMBL1148305, “5-substituted derivatives of 6-halogeno-3-((2-(S)-azetidinyl)methoxy)pyridine and 6-halogeno-3-((2-(S)-pyrrolidinyl)methoxy)pyridine with low picomolar affinity for alpha4beta2 nicotinic acetylcholine receptor and wide range of lipophilicity: potential probes for imaging with positron emission …” (J Med Chem, 2004).

The target of the test is Neuronal acetylcholine receptor; alpha4/beta2 (Rattus norvegicus, UniProt P09483+P12390). In words: Ability of compound to compete with 50 pM of 5-[125I]iodo-A-85,380 for receptor binding sites in rat brain membranes at room temperature. Type of test: cell membranes.
As a reminder, the Ki is the equilibrium dissociation constant of an inhibitor or competing ligand from its target. `Fc1ccnc[n+]1-c1cc(OC[C@@H]2CCN2)cnc1Cl` had a Ki of 8.8 pM.

Turning to `Fc1cc(/C=C/c2cc(OC[C@@H]3CCCN3)cnc2Cl)ccn1`, affinity was put at a Ki of 9.4 pM.

As for `Clc1ncc(OC[C@@H]2CCN2)cc1-c1cccnc1`, the affinity corresponds to a Ki of 8.1 pM.

`Clc1ncc(OC[C@@H]2CCN2)cc1/C=C/c1ccnc(Br)c1` returned a Ki of 5.2 pM.

In the case of `Clc1ccc(-c2cc(OC[C@@H]3CCN3)cnc2Cl)cn1`, the Ki came out at 4.5 pM.

`Clc1ccc(OC[C@@H]2CCN2)cn1` had a Ki of 34 pM.

`Fc1cc(/C=C/c2cc(OC[C@@H]3CCN3)cnc2Cl)ccn1`: the Ki was 3.1 pM.

For the compound `Clc1ncc(OC[C@@H]2CCN2)cc1-c1ccnc(Br)c1`, affinity was put at a Ki of 3.3 pM.

On to `Clc1ncc(OC[C@@H]2CCCN2)cc1/C=C/c1ccnc(Br)c1`, for which the Ki came out at 5.6 pM.

Regarding `Fc1cc(-c2cc(OC[C@@H]3CCN3)cnc2Cl)ccn1`, the affinity corresponds to a Ki of 4.8 pM.

The compound `Brc1ncc(OC[C@@H]2CCN2)cc1-c1cccnc1` displayed a Ki of 6.6 pM.

Regarding `Fc1ncc(OC[C@@H]2CCN2)cc1-c1cccnc1`, the Ki is 66 pM. This Ki is about 10-fold higher than that of the compound before.

Compound `Clc1ncc(OC[C@@H]2CCN2)cc1/C=C/c1ccncc1` displayed a Ki of 9 pM. Compared with the last compound, the Ki is about 7.3-fold lower.

In turn, `Fc1ccc(-c2cc(OC[C@@H]3CCN3)cnc2Cl)cn1` registered a Ki of 4.9 pM.

`Ic1ncc(OC[C@@H]2CCN2)cc1-c1cccnc1` gave a Ki of 11.7 pM.

Take `Fc1ncc(/C=C/c2cc(OC[C@@H]3CCN3)cnc2Cl)cc1Br`: the Ki was 7.7 pM.

Compound `Fc1ccc(-c2cc(OC[C@@H]3CCCN3)cnc2Cl)cn1` displayed a Ki of 17.9 pM.

Compound `Clc1ncc(OC[C@@H]2CCCN2)cc1-c1ccc(Br)nc1` registered a Ki of 19.5 pM.

`Fc1ncc(-c2cc(OC[C@@H]3CCN3)cnc2Cl)cc1Br` displayed a Ki of 4 pM.

The compound `Clc1ncc(OC[C@@H]2CCN2)cc1-c1ccc(Br)nc1` gave a Ki of 4.3 pM.
